Read-outs that look alike come from different tables or passages of the source.
Assay: PK Phase (Group 2): plasma concentrations and pharmacokinetics of Compound 18 and its metabolite Compound 4 after once daily ocular instillation of Compound 18 nanosuspension for 7 days
Type: in vivo, New Zealand white rabbits
Settings: for Cmax / Tmax / AUC(0-t) / half-life: male, New Zealand white, rabbit, plasma, topical or ocular, 0.8 mg/kg; for AUC(0-t): read-out: AUC0-24; for Day 1 Compound 4 Plasma Concentration / Day 7 Compound 4 Plasma Concentration: metabolite after Compound 18 dosing
From the text: This example illustrates the procedures and results for the levels of Compound 18 and its metabolite Compound 4 in plasma and ocular tissues of normotensive rabbits following ocular instillation of Compound 18 once daily for 7 consecutive days.
Twenty five (25) male New Zealand white rabbits were divided into 5 groups of varying amounts of animals per group.
The Test article, Compound 18 was formulated as a 2% nanosuspension in DI water containing 0.2% PS80 (polyoxyethylenesorbitan, monooleate (Tween 80)) and 0.4% HPMC (hydroxypropylmethylcellulose) at pH 6.77. Referred to herein as “Compound 18 nanosuspension.”
The study consisted of three groups (Groups 1-3) of 19 male rabbits (NZW) that underwent once daily morning ocular installation (1 eyedrop) for 7 consecutive days (Day 0-6). Groups 4-5 each consisted of 3 male rabbits (NZW) that were not dosed.
Blood samples (1 mL) were collected from the jugular vein at the intervals set out below for each group. The samples were then inverted several times following collection and held on wet ice until centrifuged. Samples were centrifuged within 60 minutes of collection under refrigeration (set at 5° C. for 10 minutes at 2000 g. […]
Plasma and tissue samples from treated animals (Groups 1-3) were analyzed for Compound 18 and its metabolite Compound 4 concentrations by LC-MS/MS.
Pharmacokinetic analysis was conducted using WinNonlin Version 6.2.1 (Pharsight, Mountain View, Calif.), operating as a validated software system. Noncompartmental analysis was conducted using the extravascular administration model for ocular instillation dosing.
The peak plasma concentration, time to achieve peak plasma concentration, half-life, and area under the plasma concentration-time curve (Cmax, Tmax, T1/2, and AUC) were calculated from the PK phase individual animal plasma concentrations for each sampling time/dose group for Compound 18 and its metabolite Compound 4.
BA Assay: Quantitation Range 0.05 to 100 ng/mL for Compound 18, 0.15 to 100 ng/mL for Compound 4.
Plasma calibration standards (PLSTD-A) with Compound 18 concentrations ranging from 0.0500 to 100 ng/mL were prepared by spiking control rabbit plasma with appropriate calibration curve spiking solutions (SS-A). PLQC-A samples with concentrations of 0.150, 5.00, 50.0, and 80.0 ng/mL were prepared by spiking control rabbit plasma with appropriate SS-A-QC spiking solutions.
Plasma calibration standards (PLSTD-B) with Compound 4 concentrations ranging from 0.150 to 100 ng/mL were prepared by spiking control rabbit plasma with appropriate calibration curve spiking solutions (SS-B). PLQC-B samples with concentrations of 0.450, 5.00, 50.0, and 80.0 ng/mL were prepared by spiking control rabbit plasma with appropriate SS-B-QC spiking solutions. PLQC-B-Dil samples at 800 ng/mL were prepared by spiking control rabbit plasma with the SS-B-QC-Dil spiking solution at 16,000 ng/mL, and then diluted 20× with control rabbit plasma prior to extraction.
1. Thaw plasma standards, plasma QC samples, ocular tissue QC samples, incurred plasma samples and ocular tissue samples (AH/VH) (if applicable) on wet ice. Control plasma can be thawed in tepid water. Vortex before taking aliquots.
2. Pipet 50 μL of water for Reagent Blank, 50 μL of control plasma for Double Blank and Blank, 50 μL of pre-spiked plasma for Standards and QC samples, 50 μL of incurred plasma samples (if applicable) into a 96 well plate.
5. Add 200 μL of working internal standard (WIS) solution to all remaining samples.
6. Seal the plate and vortex for approximately 5 minutes. Centrifuge the plate at 3500 rpm for 10 minutes at ˜4° C.
7. Transfer ˜200 μL of each sample supernatant into the appropriate wells of a 96 well plate. Submit for LC MS/MS analysis.
A total of 25 rabbits were used for this study, including 19 treated rabbits and 6 control rabbits. […]

[1] = Day 1, Compound 18 0.8 mg/kg ocular instillation, Mean, n=4
[2] = Day 1, Compound 18 0.8 mg/kg ocular instillation, animal 207664
[3] = Day 1, Compound 18 0.8 mg/kg ocular instillation, animal 207665
[4] = Day 1, Compound 18 0.8 mg/kg ocular instillation, animal 207666
[5] = Day 1, Compound 18 0.8 mg/kg ocular instillation, animal 207667
[6] = Day 7, Compound 18 0.8 mg/kg ocular instillation, Mean, n=4
[7] = Day 7, Compound 18 0.8 mg/kg ocular instillation, animal 207664
[8] = Day 7, Compound 18 0.8 mg/kg ocular instillation, animal 207665
[9] = Day 7, Compound 18 0.8 mg/kg ocular instillation, animal 207666
[10] = Day 7, Compound 18 0.8 mg/kg ocular instillation, animal 207667

## CCCc1nn(C)c2c(=O)[nH]c(-c3cc(S(=O)(=O)N4CC(CCCO)C4)ccc3OCC)nc12 [Compound 4, 5-(2-ethoxy-5-((3-(3-hydroxypropyl)azetidin-1-yl)sulfonyl)phenyl)-1-methyl-3-propyl-1,6-dihydro-7H-pyrazolo[4,3-d]pyrimidin-7-one]
[1]
  Cmax: 0.944 ± 0.565 ng/mL
  Tmax: 30 min
  AUC(0-t): 1.14 ± 0.957 ng·h/mL
[2]
  Cmax: 0.497 ng/mL
  Tmax: 30 min
  AUC(0-t): 0.575 ng·h/mL
[3]
  Cmax: 0.527 ng/mL
  Tmax: 30 min
  AUC(0-t): 0.321 ng·h/mL
Day 1, Compound 18 0.8 mg/kg ocular instillation, animal 207665 (one rabbit reportable)
  half-life: 24.8 min
[4]
  Cmax: 1.7 ng/mL
  Tmax: 30 min
  AUC(0-t): 2.46 ng·h/mL
[5]
  Cmax: 1.05 ng/mL
  Tmax: 30 min
  AUC(0-t): 1.18 ng·h/mL
Day 7, Compound 18 0.8 mg/kg ocular instillation, Mean, n=2
  half-life: 79.2 ± 42.1 min
[6]
  Cmax: 0.963 ± 0.17 ng/mL
  Tmax: 45 ± 17.4 min
  AUC(0-t): 1.71 ± 0.416 ng·h/mL
[7]
  Cmax: 0.851 ng/mL
  Tmax: 30 min
  AUC(0-t): 1.13 ng·h/mL
[8]
  Cmax: 0.938 ng/mL
  Tmax: 30 min
  half-life: 49.4 min
  AUC(0-t): 1.72 ng·h/mL
[9]
  Cmax: 0.851 ng/mL
  Tmax: 60 min
  half-life: 109 min
  AUC(0-t): 1.92 ng·h/mL
[10]
  Cmax: 1.21 ng/mL
  Tmax: 60 min
  AUC(0-t): 2.08 ng·h/mL
2 h, animal 207665
  Day 1 Compound 4 Plasma Concentration: BQL (BQL = Below lower limit of quantitation (0.0500 ng/mL for Compound 18 and 0.150 ng/mL for Compound 4))
4 h, animal 207664
  Day 1 Compound 4 Plasma Concentration: BQL (BQL = Below lower limit of quantitation (0.0500 ng/mL for Compound 18 and 0.150 ng/mL for Compound 4))
  Day 7 Compound 4 Plasma Concentration: BQL (BQL = Below lower limit of quantitation (0.0500 ng/mL for Compound 18 and 0.150 ng/mL for Compound 4))
4 h, animal 207665
  Day 1 Compound 4 Plasma Concentration: BQL (BQL = Below lower limit of quantitation (0.0500 ng/mL for Compound 18 and 0.150 ng/mL for Compound 4))
  Day 7 Compound 4 Plasma Concentration: BQL (BQL = Below lower limit of quantitation (0.0500 ng/mL for Compound 18 and 0.150 ng/mL for Compound 4))
4 h, animal 207667
  Day 1 Compound 4 Plasma Concentration: BQL (BQL = Below lower limit of quantitation (0.0500 ng/mL for Compound 18 and 0.150 ng/mL for Compound 4))
8 h, animal 207664
  Day 1 Compound 4 Plasma Concentration: BQL (BQL = Below lower limit of quantitation (0.0500 ng/mL for Compound 18 and 0.150 ng/mL for Compound 4))
  Day 7 Compound 4 Plasma Concentration: BQL (BQL = Below lower limit of quantitation (0.0500 ng/mL for Compound 18 and 0.150 ng/mL for Compound 4))
8 h, animal 207665
  Day 1 Compound 4 Plasma Concentration: BQL (BQL = Below lower limit of quantitation (0.0500 ng/mL for Compound 18 and 0.150 ng/mL for Compound 4))
8 h, animal 207666
  Day 1 Compound 4 Plasma Concentration: BQL (BQL = Below lower limit of quantitation (0.0500 ng/mL for Compound 18 and 0.150 ng/mL for Compound 4))
  Day 7 Compound 4 Plasma Concentration: BQL (BQL = Below lower limit of quantitation (0.0500 ng/mL for Compound 18 and 0.150 ng/mL for Compound 4))
8 h, animal 207667
  Day 1 Compound 4 Plasma Concentration: BQL (BQL = Below lower limit of quantitation (0.0500 ng/mL for Compound 18 and 0.150 ng/mL for Compound 4))
  Day 7 Compound 4 Plasma Concentration: BQL (BQL = Below lower limit of quantitation (0.0500 ng/mL for Compound 18 and 0.150 ng/mL for Compound 4))
24 h, animal 207664
  Day 1 Compound 4 Plasma Concentration: BQL (BQL = Below lower limit of quantitation (0.0500 ng/mL for Compound 18 and 0.150 ng/mL for Compound 4))
  Day 7 Compound 4 Plasma Concentration: BQL (BQL = Below lower limit of quantitation (0.0500 ng/mL for Compound 18 and 0.150 ng/mL for Compound 4))
24 h, animal 207665
  Day 1 Compound 4 Plasma Concentration: BQL (BQL = Below lower limit of quantitation (0.0500 ng/mL for Compound 18 and 0.150 ng/mL for Compound 4))
  Day 7 Compound 4 Plasma Concentration: BQL (BQL = Below lower limit of quantitation (0.0500 ng/mL for Compound 18 and 0.150 ng/mL for Compound 4))
24 h, animal 207666
  Day 1 Compound 4 Plasma Concentration: BQL (BQL = Below lower limit of quantitation (0.0500 ng/mL for Compound 18 and 0.150 ng/mL for Compound 4))
  Day 7 Compound 4 Plasma Concentration: BQL (BQL = Below lower limit of quantitation (0.0500 ng/mL for Compound 18 and 0.150 ng/mL for Compound 4))
24 h, animal 207667
  Day 1 Compound 4 Plasma Concentration: BQL (BQL = Below lower limit of quantitation (0.0500 ng/mL for Compound 18 and 0.150 ng/mL for Compound 4))
  Day 7 Compound 4 Plasma Concentration: BQL (BQL = Below lower limit of quantitation (0.0500 ng/mL for Compound 18 and 0.150 ng/mL for Compound 4))
